Experimental data published in US20170165230A1, “USE OF GSK-3 INHIBITORS OR ACTIVATORS WHICH MODULATE PD-1 OR T-BET EXPRESSION TO MODULATE T CELL IMMUNITY” (priority 2014, published 2017).
Entries after “also recorded” stand apart in the source; their conditions may differ.

How the values were obtained:
[1] = test system: PD-1 expression on T-cells; experiment: FACS of PD-1 expression on T-cells activated with anti-CD3 (2C11) for 48 hours; assay type: cell-based, mouse; details: anti-CD3 (2C11) 48 hours; anti-CD3 increased MFI by 5 fold (FIG. 4)
Description: For anti-CD3 activation of T-cells, cells were stimulated with 5 μg/ml of anti-CD3 (2C11) in RPMI medium supplemented with 10% FCS, 2 mM glutamine, 50 uM 2-ME, 100 U/ml penicillin/streptomycin for 2-4 days using established methods.
(§1) The presence of cells was confirmed by using forward scatter height or side scatter height n the form of a dot and contor plots. […] Non-stained cells were used a control.
(§2) The chemical structures of each inhibitor are shown on bottom and right sides of figure.
as §2

[2] = test system: PD-1 expression on T-cells; experiment: FACS of PD-1 expression induced by mixed lymphocyte reaction (C57Bl/6 + ICR/CD1 spleen T-cells, 60 hours); assay type: cell-based, mouse; details: C57Bl/6 + ICR/CD1 co-culture, 60 hours (FIG. 5, 6)
Description: Cell flow cytometry with an acquisition of 10 000 events and data analysis using FlowJo).
C57BL/6J (B6) or outbred mouse CRI/CD1 T-cells were cultivated either alone or together at equal numbers (1×10^6/ml) for 60 hours in the presence or absence of the inhibitor followed by the harvesting of cells and FACs analysis for PD-1 using anti-PD-1-PE.

[3] = test system: PD-1 expression on OT-1 T-cells; experiment: FACS of PD-1 surface expression on OT-1 T-cells stimulated in vitro by OVA peptide presented by EL-4 cells; assay type: cell-based, mouse; details: OT-1 T-cells stimulated in vitro by OVA peptide presented by EL-4 cells (FIG. 1, 2, 3, 11)
Description: (§3) Non-stained cells were used a control.
(§4) Cells were then stained for FACs with APC conjugated anti-PD-1 (CD279) (a, b) or subjected to qPCR (c, d) as described in the Materials and Methods. Reverse transcription was performed using the RNA polymerase chain reaction (PCR). PCRs were amplified for 40 cycles in a sequence detection system. mRNA expression was normalized against GAPDH (Glyceraldehyde 3-phosphate dehydrogenase) expression using the standard curve method.
T-cells were incubated in the presence or absence of anti-PD-1 and then subjected to FACs or qPCR as described in the Materials and Methods.

[4] = test system: Tbet (Tbx21) transcription; experiment: qPCR of Tbet transcription in OT-1 T-cells stimulated in vitro by OVA peptide/EL4; assay type: cell-based, mouse; details: OT-1 T-cells stimulated by OVA peptide in vitro (FIG. 1d)
Description: (§5) Single-strand cDNA was synthesized with an RT-PCR kit (Qiagen, Hilden, Germany) according to the manufacturer's instructions. Reverse transcription was performed using the RNA polymerase chain reaction (PCR) core kit (Applied Biosystems). Relative quantitative real-time PCR used SYBR green technology (Roche) on cDNA generated from the reverse transcription of purified RNA. After preamplification (95° C. for 2 min), the PCRs were amplified for 40 cycles (95° C. for 15 s and 60° C. for 60 s) in a sequence detection system (PE Prism 7000; Perkin-Elmer Applied Biosystems, USA). mRNA expression was normalized against GAPDH expression using the standard curve method.
as §4

CD3 expression = experiment: FACS of CD3 expression on OVA-activated OT-1 T-cells; assay type: cell-based, mouse
Excerpt: as §1

FasL expression [5] = experiment: FACS of FasL expression on OVA-activated OT-1 T-cells; assay type: cell-based, mouse
Excerpt: as §3

EL4 tumor cells = experiment: Intradermal EL4 / EL4-OVA tumor model in OT-1 Tg mice, tumor growth; assay type: in vivo, mouse; details: OVA peptide 2, 5 and 10 ug, 10 days, young mice 4-6 weeks (FIG. 9a)
PD-1 transcription = experiment: qPCR of PD-1 transcription in cells from EL4-OVA tumor-bearing OT-1 Tg mice; assay type: in vivo, mouse; details: cells at day 12, mice 4-6 weeks (FIG. 9b)
Description: as §5, with “method. […]” for “method.”

Tbet transcription = experiment: qPCR of Tbet transcription in cells from EL4-OVA tumor-bearing OT-1 Tg mice; assay type: in vivo, mouse; details: cells at day 12, mice 4-6 weeks (FIG. 9c)
Description: as §5, with “method. […]” for “method.”

[6] = test system: PD-1 expression on T-cells; experiment: FACS of PD-1 expression on T-cells from EL4-OVA tumor-bearing mice treated in vivo; set-up: species or system mouse; details: EL4-OVA model
FasL expression [7] = experiment: FACS of FasL expression on T-cells from EL4-OVA tumor-bearing mice treated in vivo; set-up: species or system mouse; details: negative control (FIG. 9d)
Excerpt: Tumors were visible after 1 wk and grew progressively in an encapsulated fashion. Mice were young at 4-6 weeks.

[8] = test system: Interferon-γ1 (IFN-γ1) expression; experiment: FACS of IFN-γ1 expression on T-cells from EL4-OVA tumor-bearing mice treated in vivo; set-up: species or system mouse; details: EL4-OVA model (FIG. 12b,c)
CD69 expression = experiment: FACS of CD69 expression on T-cells from EL4-OVA tumor-bearing mice treated in vivo; set-up: species or system mouse; details: EL4-OVA model (FIG. 12d)
[9] = test system: CTLA-4 (CD152) expression; experiment: FACS of CTLA-4 (CD152) expression on T-cells from EL4-OVA tumor-bearing mice treated in vivo; set-up: species or system mouse; details: EL4-OVA model (FIG. 12e)
[10] = test system: panel of 24 other protein kinases; details: selectivity; cited from earlier work
EL4-OVA target cells = experiment: Cytotoxicity assay: OT-1 CD8+ CTL killing of EL4-OVA target cells; details: over a range of target:effector ratios (FIG. 1e,f)
Description: Cytotoxicity was assayed using a Cytotox 96 nonradioactive kit (Promega) following the instructions provided and using established methods. In brief, purified T cells were plated in 96-well plates at the effector/target ratios shown using 10^4 EL4 (ova peptide-pulsed) target cells per well in a final volume of 200 μl per well using RPMI lacking phenol red. Target cells per well were in a final volume of 200 μl per well using RPMI lacking phenol red. Lactate dehydrogenase release was assayed after 4 h incubation at 37° C. by removal of 50 μl supernatant from each well and incubation with substrate provided for 30 min and the absorbance read at 490 nm using the Thermomax plate reader (Molecular Devices). Percentage cytotoxicity=((experimental effectorspontaneous−target spontaneous)/(targetmaximum−target spontaneous))×100.

[11] = test system: PD-1 expression on T-cells; experiment: FACS of PD-1 expression on Con A activated T-cells; assay type: cell-based, mouse; details: Con A activated T-cells (FIG. 5f)
Excerpt: Another mode of T-cell activation involves the stimulation by the lectin Concanavalin A (Con A) (e, f). ConA binds α-D-mannosyl and α-D-glucosyl residues (two hexoses differing only by the alcohol on carbon 2) in terminal position of ramified structures from B-Glycans (reach in α-mannose, or hybrid and bi-antennary glycanes complexes). Con A is known to induce cell agglutination/clustering and to stimulate mouse T-cell subsets giving rise to four functionally distinct T cell populations, including precursors to suppressor T-cell (Dwyer and Johnson 1981 Clin Exp Immunol 46 (2): 237-49). (e) contains the bright field images of Con A activated cells with cell clustering observed in the presence and absence of GSK-3 inhibitor TDZD-8.

[12] = test system: PD-1 expression on T-cells; experiment: Oral administration in drinking water, PD-1 expression on ex vivo anti-CD3 activated spleen cells; set-up: species or system mouse; details: B6 mice
Description: . […] By 48 hours, all water was consumed. […] Non-stained cells were used a control.

[13] = Oral administration in drinking water, cell numbers and viability of spleen cells
Description: A stock solution 1 mg/ml was made in 1% DMSO. In one set, the 10 ug stock solution was diluted in 10 ml of water. […] By 48 hours, all water was consumed. Mice were then sacrificed, spleen extracted on 60 hours, cells were spun down at 1,800 for 3 min and ACK for removal of red blood cells (RBCs) treated for 2 min. Cells were then centrifuged at 1,800 rpm for 3 min and the absence of red blood cells was confirmed by the loss of red color in the cell pellet. […] An additional stimulant of 2 ug/ml ConA was also added at 48 hours of culture.
Ex vivo extracted cells were then cultured in 48 well tissue culture plates for 48 hours in the presence of anti-CD3 on plates (1 ug/ml).

Cc1c[nH]c(-c2cnc(NCCNc3ccc(C#N)cn3)nc2-c2ccc(Cl)cc2Cl)n1.Cl [CHIR-99021, 6-(2-(4-(2,4-dichlorophenyl)-5-(4-methyl-1H-imidazol-2-yl)pyrimidin-2-ylamino)ethylamino)nicotinonitrile hydrochloride]
inhibition of anti-CD3 induced increase in PD-1 expression (MFI) [1]: > 55% | PD-1 expression induced in the MLR (FACS) [2]: inhibition of PD-1 expression

Cn1cc(C2=C(c3ccc(Cl)cc3Cl)C(=O)NC2=O)c2ccccc21 [SB216763, 3-(2,4-dichlorophenyl)-4-(1-methyl-1H-indol-3-yl)-1H-pyrrole-2,5-dione]
PD-1 surface expression (FACS profile) [3]: reduced PD-1 expression; also recorded: decreased the number of cells expressing PD-1 | Tbet transcription (qPCR) [4]: increased Tbet transcription | CD3 expression (FACS profile) (CD3 expression): unaltered CD3 expression | FasL expression (FACS profile) (FasL expression [5]): unaltered FasL expression | tumor growth (EL4 tumor cells): prevented tumor growth at all concentrations of OVA peptide | PD-1 transcription in vivo (qPCR) (PD-1 transcription): inhibition of PD-1 transcription at all doses of OVA peptide | Tbet transcription in vivo (qPCR) (Tbet transcription): increased Tbet transcription | PD-1 expression on T-cells after in vivo administration (flow cytometry) ([6]; mice 4-6 weeks (FIG. 9d)): PD-1 expression is reduced | PD-1 expression on T-cells after in vivo administration (FACS) ([6]; tumor elimination (FIG. 12a)): down-regulation of PD-1 | FasL expression after in vivo administration (flow cytometry) (FasL expression [7]): absence of an effect on FasL expression | IFN-γ1 expression after in vivo administration (FACS) [8]: increase expression of IFN-γ1 on a greater number of cells | CD69 expression after in vivo administration (FACS) (CD69 expression): minor increase in CD69 expression | CTLA-4 expression after in vivo administration (FACS) [9]: minor increase | inhibition of a panel of 24 other protein kinases [10]: Neither compound significantly inhibited any member | OT-1 CTL killing of EL4-OVA targets (CTL function) (EL4-OVA target cells): increase CTL function

Cn1sc(=O)n(Cc2ccccc2)c1=O [TDZD-8, 1,2,4-Thiadiazolidine-3,5-dione, 2-methyl-4-(phenylmethyl)]
inhibition of anti-CD3 induced increase in PD-1 expression (MFI) [1]: > 50% | fewer PD-1 positive cells [11]: > 45% | percentage of T-cells expressing PD-1 after oral administration ([12]; drug in drinking water (FIG. 13e)): reduce the percentage of T-cells expressing PD-1 | PD-1 expression on ex vivo cells after oral administration (FACS) ([12]; drug in drinking water, ex vivo anti-CD3 48 hours (FIG. 13d)): lower expression of PD-1 | cell death / viability of cells in ex vivo culture after oral administration ([13]; 48 hours ex vivo culture (FIG. 13b,c)): no indication of cell death; also recorded: no obvious long-term effect on viability | spleen cell numbers, drug treated versus untreated mice ([13]; oral, 2 mg/kg, spleen extracted at 60 hours): No difference on cell numbers

COc1ccc(CNC(=O)Nc2ncc([N+](=O)[O-])s2)cc1 [AR-A014418, N-[(4-Methoxyphenyl)methyl]-N′-(5-nitro-2-thiazolyl)urea]
inhibition of anti-CD3 induced increase in PD-1 expression (MFI) [1]: > 45% | PD-1 expression induced in the MLR (FACS) [2]: inhibition of PD-1 expression
